Molecular target: T1, AR protein (Homo sapiens, UniProt P10275)
T1 construct: host or cells: VCaP
T1 sequence (P10275 1-920): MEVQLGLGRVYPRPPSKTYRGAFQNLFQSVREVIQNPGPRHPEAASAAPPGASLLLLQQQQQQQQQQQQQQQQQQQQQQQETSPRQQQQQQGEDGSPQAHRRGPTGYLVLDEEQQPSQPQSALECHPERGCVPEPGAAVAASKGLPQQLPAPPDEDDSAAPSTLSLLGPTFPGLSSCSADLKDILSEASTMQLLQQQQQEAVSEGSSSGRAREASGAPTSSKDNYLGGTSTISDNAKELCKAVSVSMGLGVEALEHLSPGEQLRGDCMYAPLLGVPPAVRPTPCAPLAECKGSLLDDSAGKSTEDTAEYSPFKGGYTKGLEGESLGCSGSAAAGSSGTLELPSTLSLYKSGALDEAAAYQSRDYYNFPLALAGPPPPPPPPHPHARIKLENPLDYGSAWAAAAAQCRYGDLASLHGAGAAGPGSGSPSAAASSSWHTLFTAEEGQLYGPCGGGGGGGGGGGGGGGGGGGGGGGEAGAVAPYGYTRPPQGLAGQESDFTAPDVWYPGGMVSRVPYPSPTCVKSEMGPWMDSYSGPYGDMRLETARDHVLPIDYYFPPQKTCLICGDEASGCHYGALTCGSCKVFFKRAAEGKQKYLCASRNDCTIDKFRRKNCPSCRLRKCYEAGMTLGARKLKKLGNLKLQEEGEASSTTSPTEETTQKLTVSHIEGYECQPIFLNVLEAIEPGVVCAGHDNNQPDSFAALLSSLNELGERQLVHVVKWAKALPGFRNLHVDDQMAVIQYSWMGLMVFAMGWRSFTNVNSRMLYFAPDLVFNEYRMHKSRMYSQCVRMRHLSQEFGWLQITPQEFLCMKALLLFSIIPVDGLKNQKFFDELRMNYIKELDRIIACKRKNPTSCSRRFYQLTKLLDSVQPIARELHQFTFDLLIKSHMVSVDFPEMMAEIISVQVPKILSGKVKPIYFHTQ
Assay: AR protein degradation in VCaP cells (Western blot)
Type: cell-based
Conditions: 8h
Method in brief: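 AR-positive VCaP human prostate cancer cells grown in DMEM with 10% FBS were plated in six-well plates at 3×10^5 cells/well and incubated overnight. Compounds were then added at 1 µL/well alongside a solvent control and incubated for 8h. Lysates in RIPA buffer with protease inhibitor were quantified by BCA and run by SDS-PAGE. AR was detected by Western blot, and degradation was calculated from band grayscale normalized to GAPDH.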

Molecule | Degradation rate of AR protein in VCaP cells (0.5 nM) [%] | Degradation rate of AR protein in VCaP cells (5 nM) [%]
COc1cc(O[C@H]2C(C)(C)[C@H](NC(=O)c3ccc(N4CCC(F)(CN5CCC6(CCc7cc(C(=O)N[C@H]8CCC(=O)NC8=O)c(F)cc7O6)CC5)CC4)cc3)C2(C)C)ccc1C#N [A-P-52, 1'-((1-(4-(((1r,3r)-3-(4-cyano-3-methoxyphenoxy)-2,2,4,4-tetramethylcyclobutyl)carbamoyl)phenyl)-4-fluoropiperidin-4-yl)methyl)-N-((S)-2,6-dioxopiperidin-3-yl)-7-fluorospiro[chroman-2,4'-piperidin]-6-carboxamide] | -1 | 14
COc1cc(O[C@H]2C(C)(C)[C@H](NC(=O)c3ccc(N4CCC(CN5CCN6c7ccc(C(=O)N[C@H]8CCC(=O)NC8=O)cc7OC[C@@H]6C5)CC4)cc3)C2(C)C)ccc1C#N [A-P-67] | 20 | 70
C[C@H]1CC2(CCN(c3ccc(C(=O)N4CCC(CN5CCN6c7ccc(C(=O)N[C@H]8CCC(=O)NC8=O)cc7OC[C@H]6C5)CC4)cc3)CC2)CN1c1ccc(C#N)c(Cl)c1 [A-P-68] | 5 | 33
C[C@H]1CC2(CCN(c3ccc(C(=O)N4CCC(CN5CCN6c7ccc(C(=O)N[C@H]8CCC(=O)NC8=O)cc7OC[C@@H]6C5)CC4)cc3)CC2)CN1c1ccc(C#N)c(Cl)c1 [A-P-69] | -9 | 18
COc1cc(O[C@H]2C(C)(C)[C@H](NC(=O)c3ccc(N4CCC(CN5CCC6(CC5)COc5c6ccc(C(=O)N[C@H]6CCC(=O)NC6=O)c5F)CC4)cc3)C2(C)C)ccc1C#N [A-P-83] | 36 | 66
COc1cc(O[C@H]2C(C)(C)[C@H](NC(=O)c3ccc(N4CCC(F)(CN5CCC6(CC5)COc5c6ccc(C(=O)N[C@H]6CCC(=O)NC6=O)c5F)CC4)cc3)C2(C)C)ccc1C#N [A-P-84] | -14 | -17
COc1cc(O[C@H]2C(C)(C)[C@H](NC(=O)c3ccc(N4CCC(C)(CN5CCC6(CC5)COc5c6ccc(C(=O)N[C@H]6CCC(=O)NC6=O)c5F)CC4)cc3)C2(C)C)ccc1C#N [A-P-85, 1'-((1-(4-(((1r,3r)-3-(4-cyano-3-methoxyphenoxy)-2,2,4,4-tetramethylcyclobutyl)carbamoyl)phenyl)-4-methylpiperidin-4-yl)methyl)-N-((S)-2,6-dioxopiperidin-3-yl)-7-fluoro-2H-spiro[benzofuran-3,4'-piperidin]-6-carboxamide] | 18 | 34
COc1cc(O[C@H]2C(C)(C)[C@H](NC(=O)c3ccc(N4CCC(CN5CCC6(CC5)COc5c6ccc(C(=O)N[C@H]6CCC(=O)NC6=O)c5F)(OC)CC4)cc3)C2(C)C)ccc1C#N [A-P-86, 1'-((1-(4-(((1r,3r)-3-(4-cyano-3-methoxyphenoxy)-2,2,4,4-tetramethylcyclobutyl)carbamoyl)phenyl)-4-methoxypiperidin-4-yl)methyl)-N-((S)-2,6-dioxopiperidin-3-yl)-7-fluoro-2H-spiro[benzofuran-3,4'-piperidin]-6-carboxamide] | -30 | 1
COc1cc(O[C@H]2C(C)(C)[C@H](NC(=O)c3ccc(N4CCC(CN5CCN6c7ccc(N[C@H]8CCC(=O)NC8=O)cc7OC[C@@H]6C5)CC4)cc3)C2(C)C)ccc1C#N [A-P-100] | -20 | 21
COc1cc(O[C@H]2C(C)(C)[C@H](NC(=O)c3ccc(N4CCC(CN5CCN(c6ccc(C(=O)N[C@H]7CCC(=O)NC7=O)c(F)c6)CC5)CC4)cc3)C2(C)C)ccc1C#N [ARV-766, reference compound] | 9 | 80
(R)-3-((1-(4-(((S)-2-(3-chloro-4-cyanophenyl)-3-methyl-2,8-diazaspiro[4.5]decan-8-yl)phenyl)piperidin-4-yl)methyl)-N-(((S)-2,6-dioxopiperidin-3-yl)-1,2,3,4,4a,5-hexahydrobenzo[b]pyrazi no[1,2-d][1,4]oxazine-8-carboxamide [A-P-58] | 12 | 37
(S)-3-((1-(4-(((S)-2-(3-chloro-4-cyanophenyl)-3-methyl-2,8-diazaspiro[4.5]decan-8-yl)phenyl)piperidin-4-yl)methyl)-N-(((S)-2,6-dioxopiperidin-3-yl)-1,2,3,4,4a,5-hexahydrobenzo[b]pyrazi no[1,2-d][1,4]oxazine-8-carboxamide [A-P-57] | -31 | -21
N-(1r,4r)-4-(3-chloro-4-cyanophenoxy)cyclohexy 1)-6-(4-(7-(2,6-dioxopiperidin-3-yl))-6-oxo-7,8-dihydro-2H,6H-dipyrido[2,3-e]isoindole-3,1'-cyclohexane-4',4‴-piperidin]-1"-yl)pyridazine-3-carboxamide [A-P-32] | 14 | 59

Source: patent EP4722219A1 (Gan & Lee Pharmaceuticals Co., Ltd., priority 2023, dated 2024)
